Paper PMC12567041 (Pharmaceutics, 2025)
Several values for one entry are separate records, joined by “and”; a condition that tells them apart may be missing. Equal values may be shown once. Entries after “also recorded” stand apart in the source; their conditions may differ. Blank lines part the entries; values can stand above or below the molecule they belong to.

Columns and labels:
[1] = cited from earlier work
[2] = cited from earlier work; remark: listed apart in the source
[3] = In vitro stability study in human feces; type: in vitro ADME; details: after 20 h
[4] = Compartmental concentrations for static DDI risk assessment; parameters: species or system human
CYP3A4 [5] = system: CYP3A4
[6] = cited from earlier work; remark: listed apart in the source
[7] = 40 mg dose; cited from earlier work
[8] = Clinical DDI studies, asciminib as victim (observed); type: in vivo, human; details: asciminib 200 mg single dose + phenytoin 100 mg TID
[9] = Two-stage dissolution FaSSGF to FaSSIF; type: physicochemical; details: doses up to 200 mg
Experimental: […]. […] In vitro two-stage dissolution experiments, during which the drug/formulation is pre-exposed to fasted-state simulated gastric fluid (FaSSGF) for a 30 min period, at the end of which, properly concentrated fasted-state simulated intestinal fluid (FaSSIF) is immediately added to FaSSGF [13], were performed to assess the risk of precipitation in vitro. […] Considering the high passive permeability, this indicates low risk for compromised absorption in vivo, further supporting the assumption of the complete absorption of asciminib in humans in the fasted state.

[10] = HLMs; cited from earlier work
[11] = Relative contributions of clearance pathways (fm/fe/ft); parameters: species or system human
From the text: However, as discussed below, the in vivo contribution of UGTs was later adjusted downward to account for BCRP-mediated biliary excretion.
The contributions of CYP enzymes and renal elimination remained unchanged. […] A summary of the Simcyp output for elimination pathways, with and without BCRP, is provided in Supplementary Table S1.

[12] = with strong P-gp inhibitor quinidine; cited from earlier work
CYP3A4/5 = experiment: Time-dependent inhibition of CYP3A4/5; type: in vitro ADME; details: up to 50 μM; in-house data
[13] = Biopharmaceutics classification; type: physicochemical
[14] = cited from earlier work; remark: listed apart in the source
MDCK-LE cell line = experiment: Apparent passive permeability in MDCK-LE cells; details: from MDCK-LE permeability
CYP2J2 [15] = details: Km*fumic; read-out: Km,u (CYP2J2), mean (SD); cited from earlier work
CYP3A4 [16] = experiment: Enzyme kinetics, recombinant CYP3A4; details: back-calculated, aim for fm = 0.351
[17] = Fraction unbound in microsomal incubation (fumic); type: in vitro ADME; details: for fraction unbound: human, microsomes (microsomal incubation)
CYP2J2 [18] = experiment: Enzyme kinetics, recombinant CYP2J2; details: back-calculated, aim for fm = 0.0076
[19] = Preclinical volume of distribution across animal species; details: in vivo
in vitro = details: MDCK
[20] = cited from earlier work; remark: listed apart in the source
[21] = in vitro, mean (SD); cited from earlier work
UGT1A4 = target: T1, UGT1A4 (Homo sapiens, UniProt P22310); experiment: Inhibition of recombinant UGT1A4 by imatinib; type: in vitro ADME
T1 sequence (P22310 29-534): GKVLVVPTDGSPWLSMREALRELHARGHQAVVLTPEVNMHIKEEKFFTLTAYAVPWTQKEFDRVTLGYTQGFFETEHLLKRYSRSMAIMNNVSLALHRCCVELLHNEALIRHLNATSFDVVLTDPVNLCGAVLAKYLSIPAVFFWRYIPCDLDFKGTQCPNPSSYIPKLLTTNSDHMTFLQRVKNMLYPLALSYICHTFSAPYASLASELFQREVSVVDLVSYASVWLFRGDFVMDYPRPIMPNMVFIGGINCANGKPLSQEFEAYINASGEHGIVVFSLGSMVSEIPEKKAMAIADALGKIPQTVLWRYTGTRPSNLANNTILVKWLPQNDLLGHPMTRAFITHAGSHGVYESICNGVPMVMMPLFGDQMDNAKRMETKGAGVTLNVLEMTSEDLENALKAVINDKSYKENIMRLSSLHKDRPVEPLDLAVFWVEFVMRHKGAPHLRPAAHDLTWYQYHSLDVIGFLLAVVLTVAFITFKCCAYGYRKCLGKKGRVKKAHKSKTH

[22] = Table S1, sum of hepatic and renal UGT contributions
[23] = assuming no active biliary secretion

SMILES: Cn1c(=O)c2c(ncn2C)n(C)c1=O [Caffeine, caffeine]
fm by CYP1A2 ([1]; probe substrate property): ≈ 0.9

SMILES: O=C(Nc1ccc(OC(F)(F)Cl)cc1)c1cnc(N2CC[C@@H](O[C@@H]3O[C@H](C(=O)O)[C@@H](O)[C@H](O)[C@H]3O)C2)c(-c2ccn[nH]2)c1 [M30.5]
share of the total AUC ([2]; circulating metabolite): 4.93%
share of the administered dose ([2]; urinary metabolite): 5.4–8.4%
stability in human feces [3]: almost completely hydrolyzed back to asciminib

SMILES: COc1ccc2[nH]c([S+]([O-])Cc3ncc(C)c(OC)c3C)nc2c1 (centres unmarked) [Omeprazole, omeprazole]
fm by CYP2C19 ([1]; CYP2C19 normal metabolizers): ≈ 0.9
fm by CYP3A ([1]; probe substrate property): ≈ 0.1

SMILES: Cc1nnc(C(=O)NC(C)(C)c2nc(C(=O)NCc3ccc(F)cc3)c(O)c(=O)n2C)o1 [Raltegravir, raltegravir]
share eliminated by renal clearance ([1]; assumption of the raltegravir model): 9%

SMILES: CCOc1cc(CC(=O)N[C@@H](CC(C)C)c2ccccc2N2CCCCC2)ccc1C(=O)O [Repaglinide, repaglinide]
fm by CYP2C8 ([1]; probe substrate property): ≈ 0.7
fm by CYP3A ([1]; probe substrate property): ≈ 0.3

SMILES: O=C(Nc1ccc(OC(F)(F)Cl)cc1)c1cnc(N2CC[C@@H](O)C2)c(-c2ccn[nH]2)c1 [asciminib]
Cgut (maximal gut concentration) ([4]; 40 mg BID): 356 µM
Cgut,ent (maximal enterocyte concentration) ([4]; 40 mg BID): 10.5 µM
Ch,in,tot (total maximal hepatic inlet plasma concentration) ([4]; 40 mg BID): 4.47 µM
Ch,in,u (unbound maximal hepatic inlet plasma concentration at the steady state) ([4]; 40 mg BID): 0.121 µM
Cgut (maximal gut concentration) ([4]; 80 mg QD): 711 µM
Cgut,ent (maximal enterocyte concentration) ([4]; 80 mg QD): 20.9 µM
Ch,in,tot (total maximal hepatic inlet plasma concentration) ([4]; 80 mg QD): 9.38 µM
Ch,in,u (unbound maximal hepatic inlet plasma concentration at the steady state) ([4]; 80 mg QD): 0.253 µM
Cgut (maximal gut concentration) ([4]; 200 mg BID): 1778 µM
Cgut,ent (maximal enterocyte concentration) ([4]; 200 mg BID): 52.4 µM
Ch,in,tot (total maximal hepatic inlet plasma concentration) ([4]; 200 mg BID): 26.1 µM
Ch,in,u (unbound maximal hepatic inlet plasma concentration at the steady state) ([4]; 200 mg BID): 0.704 µM
estimated gastrointestinal luminal concentration ([4]; lowest clinical dose 20 mg): ~ 178 μM
Emax (CYP3A4), non-calibrated (CYP3A4 [5]): Non-calibrated Emax = 4.4 In-house data fold
Indmax (=Emax + 1) (CYP3A4), in vitro measured (CYP3A4 [5]): 5.4 fold
Log P: Octanol–water partition/logD pH 6.8 [6]: 3.9
AUC in cancer patients [7]: 5800 to 6100 ng·h/mL
reduction of AUCinf, observed [8]: 34%
reduction of Cmax, observed [8]: 22%
duration of sustained supersaturation [9]: at least 1 h
precipitation in vitro [9]: < 20%
share of metabolism by glucuronidation [10]: ~ 65%
share of metabolism by oxidative metabolism [10]: ~ 35%
CYP2C8: aim for fm/fe/ft, Simcyp output (without BCRP) ([11]; Table S1): 0.007
CYP2C8: aim for fm/fe/ft, final fm (including hepatic BCRP) ([11]; Table S1): 0.005
CYP2C8: fm/fe based on hADME ([11]; Table S1): 0.005
CYP2D6: aim for fm/fe/ft, Simcyp output (without BCRP) ([11]; Table S1): 0.003
CYP2D6: aim for fm/fe/ft, final fm (including hepatic BCRP) ([11]; Table S1): 0.002
CYP2D6: fm/fe based on hADME ([11]; Table S1): 0.002
CYP2J2: aim for fm/fe/ft, Simcyp output (without BCRP) ([11]; Table S1): 0.011
CYP2J2: aim for fm/fe/ft, final fm (including hepatic BCRP) ([11]; Table S1): 0.0076
CYP2J2: fm/fe based on hADME ([11]; Table S1): 0.0076
CYP3A4: aim for fm/fe/ft, Simcyp output (without BCRP) ([11]; Table S1): 0.509
CYP3A4: aim for fm/fe/ft, final fm (including hepatic BCRP) ([11]; Table S1): 0.351
CYP3A4: fm/fe based on hADME ([11]; Table S1): 0.351
Hepatic BCRP: aim for fm/fe/ft, final fm (including hepatic BCRP) ([11]; Table S1): 0.311
Hydrolysis: aim for fm/fe/ft, Simcyp output (without BCRP) ([11]; Table S1): 0.010
Hydrolysis: aim for fm/fe/ft, final fm (including hepatic BCRP) ([11]; Table S1): 0.007
Hydrolysis: fm/fe based on hADME ([11]; Table S1): 0.007
Renal excretion: aim for fm/fe/ft, Simcyp output (without BCRP) ([11]; Table S1): 0.035
Renal excretion: aim for fm/fe/ft, final fm (including hepatic BCRP) ([11]; Table S1): 0.044
Renal excretion: fm/fe based on hADME ([11]; Table S1): 0.044
UGT1A3: aim for fm/fe/ft, Simcyp output (without BCRP) ([11]; Table S1): 0.048
UGT1A3: aim for fm/fe/ft, final fm (including hepatic BCRP) ([11]; Table S1): 0.033
UGT1A3: fm/fe based on hADME ([11]; Table S1): 0.0705
UGT1A4: aim for fm/fe/ft, Simcyp output (without BCRP) ([11]; Table S1): 0.048
UGT1A4: aim for fm/fe/ft, final fm (including hepatic BCRP) ([11]; Table S1): 0.033
UGT2B7: aim for fm/fe/ft, Simcyp output (without BCRP) ([11]; Table S1): 0.190
UGT2B7: aim for fm/fe/ft, final fm (including hepatic BCRP) ([11]; Table S1): 0.131
UGT2B17: aim for fm/fe/ft, Simcyp output (without BCRP) ([11]; Table S1): 0.110
UGT2B17: aim for fm/fe/ft, final fm (including hepatic BCRP) ([11]; Table S1): 0.076
UGT2B17: fm/fe based on hADME ([11]; Table S1): 0.163
UGT1A4: fm/fe based on hADME [11, 22]: 0.0705
UGT2B7: fm/fe based on hADME [11, 22]: 0.279
revised total UGT contribution to total clearance ([11]; after subtracting BCRP contribution): approximately 27.3%
CYP-mediated contribution to total clearance [11, 23]: 36.6%
UGT-mediated contribution to total clearance [11, 23]: 58.3%
decrease of asciminib AUC [12]: 13%
decrease of asciminib Cmax [12]: 11%
unchanged asciminib in urine [2]: 4.4 % of the administered radioactive dose
parent asciminib in feces due to back-conversion of M30.5 ([2]; estimated from late-time-point feces profile): 24%
CLr (renal clearance) ([2]; healthy): 1.8 mL/min/1.73 m^2
unchanged asciminib in cumulative feces ([2]; pooled 0–96 h or 0–168 h, average): 56.7 % of the dose
time-dependent inhibition (TDI) of CYP3A4/5 (CYP3A4/5): no apparent TDI; also recorded: no in vitro apparent time-dependent inhibition
biopharmaceutics classification system (BCS) class [13]: class II
exposure reduction, high-fat fed [14]: 70%
exposure reduction, low-fat fed [14]: 33%
predicted fraction absorbed (fa) (MDCK-LE cell line): 93% and ~ 93%
Km (CYP2J2 [15]): 0.694 µM
Vmax (CYP3A4) (CYP3A4 [16]): 3.8 pmol/min/pmol of CYP
fumic ([17]; 0.810 mg of protein/mL (CYP3A4 incubation)): 0.160
fumic ([17]; 1.40 mg of protein/mL (CYP2J2 incubation)): 0.0925
fumic ([17]; 1.5 mg of protein/mL (UGT incubation)): 0.0811
fumic ([17]; 1.58 mg of protein/mL (CYP2C8 incubation)): 0.0829
fumic ([17]; 1.86 mg of protein/mL (CYP2D6 incubation)): 0.0680
fraction unbound ([17]; 0.025 mg/mL of protein): 0.871
fraction unbound ([17]; 0.05 mg/mL of protein): 0.75
fraction unbound ([17]; 0.5 mg/mL of protein): 0.208
Vmax (CYP2J2) (CYP2J2 [18]): 0.355 pmol/min/pmol CYP
Vd [19]: 0.5 to 2.2 L/kg
recovery (in vitro; dog): 88%
Papp (in vitro; human): 373 ×10⁻⁶ cm/s
flux in presence of elevated bile acid concentrations (FeSSIF) [20]: reduced asciminib flux
fup (fraction unbound in plasma) [21]: 0.027 (0.011)

Papp A→B (in vitro; dog): 0.24 ×10⁻⁶ cm/s
SMILES: C[C@H]1[C@H](NC(=O)/C(=N\OC(C)(C)C(=O)O)c2csc(N)n2)C(=O)N1S(=O)(=O)O [aztreonam, reference compound]

IC50 (UGT1A4): 15 µM
SMILES: Cc1ccc(NC(=O)c2ccc(CN3CCN(C)CC3)cc2)cc1Nc1nccc(-c2cccnc2)n1 [imatinib]

Papp A→B (in vitro; dog): 36 ×10⁻⁶ cm/s
SMILES: CC(C)NCC(O)COc1cccc2ccccc12 (centres unmarked) [propranolol, reference compound]

SMILES: CN(CCOc1ccc(CC2SC(=O)NC2=O)cc1)c1ccccn1 (centres unmarked) [rosiglitazone]
fm by CYP2C8 ([1]; probe substrate property): ≈ 0.6
fm by CYP2C9 ([1]; probe substrate property): ≈ 0.3
